A short description of data set [1]: Inhibition of fungal curdlan induced PD-L1 expression in mouse neutrophils at 40 uM relative to control. It counts as functional, Neutrophil. The settings on record: for inhibition (INH): 40 µM; for inhibition at 40 µM: Mus musculus, Neutrophil.
For another data set, the system named is Neutrophil. Briefly: (§1) Cytotoxicity against mouse neutrophils assessed as cell viability at 40 uM relative to control. It counts as toxicity, cell-based. The conditions noted are these: neutrophil, 40 µM.
The nature of data set [2]: as §1. The settings on record: mouse neutrophils, read-out: Activity. In kind it is toxicity, cell-based, Neutrophil.
For data set [3], the target named is Signal transducer and activator of transcription 3 (Mus musculus) (UniProt P42227). In words: Binding affinity to STAT3 in mouse bone marrow neutrophils at 20 uM by silver staining based pulldown assay. It counts as cell-based. The settings on record: Neutrophil.
Chain of Signal transducer and activator of transcription 3 (Mus musculus) (P42227 whole entry): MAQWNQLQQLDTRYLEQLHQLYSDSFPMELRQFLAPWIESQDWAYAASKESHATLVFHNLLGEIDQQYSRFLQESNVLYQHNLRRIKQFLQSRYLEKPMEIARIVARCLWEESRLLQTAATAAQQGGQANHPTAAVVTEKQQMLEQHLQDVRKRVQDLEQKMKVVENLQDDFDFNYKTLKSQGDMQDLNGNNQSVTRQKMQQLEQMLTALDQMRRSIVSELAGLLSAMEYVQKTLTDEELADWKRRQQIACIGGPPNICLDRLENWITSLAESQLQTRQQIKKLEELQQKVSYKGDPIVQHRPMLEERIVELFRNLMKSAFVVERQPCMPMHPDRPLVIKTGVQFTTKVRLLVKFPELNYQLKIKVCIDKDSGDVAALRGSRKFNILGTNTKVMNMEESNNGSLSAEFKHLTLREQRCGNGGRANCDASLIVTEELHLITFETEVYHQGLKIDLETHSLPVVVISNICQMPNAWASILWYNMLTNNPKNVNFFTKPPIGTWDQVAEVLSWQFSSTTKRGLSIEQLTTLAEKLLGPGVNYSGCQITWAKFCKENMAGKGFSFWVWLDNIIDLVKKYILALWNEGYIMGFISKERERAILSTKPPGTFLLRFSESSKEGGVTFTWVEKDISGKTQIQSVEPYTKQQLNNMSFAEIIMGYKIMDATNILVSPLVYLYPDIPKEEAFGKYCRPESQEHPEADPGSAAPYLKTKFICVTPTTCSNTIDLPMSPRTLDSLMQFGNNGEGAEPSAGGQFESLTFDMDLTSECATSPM
The target is the same in data set [4]. In words: Binding affinity to STAT3 in mouse bone marrow neutrophils at 20 uM by pulldown based Western blot analysis. It counts as cell-based. The conditions noted are these: Neutrophil. On the technique in general: Immunoblotting shows a protein as a band on a membrane.
In data set [5] the test system is Candida albicans. In words: Antifungal activity against Candida albicans SC5314 assessed as inhibition of fungal growth measured every 3 hrs for 24 hrs by absorbance based analysis. The settings on record: dose 0.25-128 µg/ml. It counts as functional, organism-based.
Data set [6] relates to Candida albicans. In words: Antifungal activity against candida albicans SC5314 infected in mouse assessed as reduction in PD-L1 positive Ly6G-positive neutrophils in kidney at 200 mg/kg, po administered on day 1 and 3. It counts as functional, organism-based. The settings on record: time 1-3 day.
In data set [7] the test system is Candida albicans. In words: Antifungal activity against candida albicans SC5314 infected in mouse assessed as reduction in fungal burden in kidney at 200 mg/kg, po administered on day 1 and 3. In kind it is functional, organism-based. The settings on record: time 1-3 day.

The source made the active and inactive calls. No cut-off for these calls is given here.

As to `CC1=C2CC[C@@](C)(O)[C@@H]2[C@H]2OC(=O)[C@@H](C[S+]([O-])c3ccc(Cl)cc3Cl)[C@@H]2CC1` (stereo in doubt; 22b), in data set [1], the “inhibition (INH)” value came out at 47.66%. The Activity in the data set on Neutrophil amounted to 21.1%.
The inhibition is how much of the control response was suppressed. High values mean strong suppression, low ones little suppression. As for `COc1ccc(SC[C@@H]2C(=O)O[C@H]3[C@H]2CCC(C)=C2CC[C@@](C)(O)[C@@H]23)cc1`, in data set [1], at 40 µM the inhibition was 63.2%. The viability at 40 µM in data set [2] was 88.8%.
In the same order, the values of `CC(C)CCS(=O)(=O)C[C@@H]1C(=O)O[C@H]2[C@H]1CC[C@]1(C)O[C@@]13CC[C@@](C)(O)[C@H]23` are 60.9% and 68.7%.
For `C=C1C(=O)O[C@H]2[C@H]1CCC(C)=C1CC[C@@](C)(OC(=O)CCCc3cn(CCOCCOCCOCCNC(=O)CCCC[C@H]4SC[C@H]5NC(=O)N[C@H]54)nn3)[C@@H]12`, the result in data set [3] and in data set [4] was Active.
For the molecule `C[C@@]1(O)CC[C@]23O[C@@]2(C)CC[C@@H]2[C@H](OC(=O)[C@H]2CS(=O)(=O)c2ccc(F)cc2)[C@@H]13`, at 40 µM the inhibition in data set [1] was 82.6%. Moreover, the viability at 40 µM in data set [2] was found to be 50.7%.
In data set [1], `C[C@@]1(O)CC[C@]23O[C@@]2(C)CC[C@@H]2[C@H](OC(=O)[C@H]2C[S+]([O-])c2ccc(Cl)cc2Cl)[C@@H]13` (stereo in doubt; 23a) gave an inhibition at 40 µM of 61.1%. Further, the viability at 40 µM in data set [2] is 59.2%.
In the same order, the values of `C[C@@]1(O)CC[C@]23O[C@@]2(C)CC[C@@H]2[C@H](OC(=O)[C@H]2CS(=O)(=O)c2ccc(Cl)cc2Cl)[C@@H]13` are 78.8% and 74.9%.
Consider `CC1=C2CC[C@@](C)(O)[C@@H]2[C@H]2OC(=O)[C@@H](CSc3ccncc3)[C@@H]2CC1`, for which the inhibition at 40 µM in data set [1] was 72.5%. In addition, the viability at 40 µM in data set [2] was 57.2%.
With `C[C@@]1(O)CC[C@]23O[C@@]2(C)CC[C@@H]2[C@H](OC(=O)[C@H]2CS(=O)(=O)c2ccc(Cl)c(Cl)c2)[C@@H]13`, the inhibition at 40 µM in data set [1] was 72.7%. Moreover, the viability at 40 µM in data set [2] is 65.2%.
The molecule `C[C@@]1(O)CC[C@]23O[C@@]2(C)CC[C@@H]2[C@H](OC(=O)[C@H]2CS(=O)(=O)c2ccncc2)[C@@H]13` came in with an inhibition at 40 µM in data set [1] of 65.4%. Also, in data set [2], the viability at 40 µM stood at 79.4%.
`CC1=C2CC[C@@](C)(O)[C@@H]2[C@H]2OC(=O)[C@@H](CSc3c(Cl)cccc3Cl)[C@@H]2CC1` showed an inhibition at 40 µM in data set [1] of 41.6%. Moreover, the viability at 40 µM in data set [2] amounted to 57.5%.
As to `CC1=C2CC[C@@](C)(O)[C@@H]2[C@H]2OC(=O)[C@@H](CS(=O)(=O)C3CCCCC3)[C@@H]2CC1`, in data set [1], the inhibition at 40 µM was found to be 49.5%. In addition, the viability at 40 µM in data set [2] came to 66.3%.
Regarding `OC(Cn1cncn1)(Cn1cncn1)c1ccc(F)cc1F`, the Activity result in the data set with Candida albicans [5] is “Dose-Dependent Effect”.
`COc1ccc(S(=O)(=O)C[C@@H]2C(=O)O[C@H]3[C@H]2CCC(C)=C2CC[C@@](C)(O)[C@@H]23)cc1` had an inhibition at 40 µM in data set [1] of 63.5%. Also, the viability at 40 µM in data set [2] stood at 39.5%.
In turn, `CC1=C2CC[C@@](C)(O)[C@@H]2[C@H]2OC(=O)[C@@H](CSc3ccc(Cl)c(Cl)c3)[C@@H]2CC1` displayed an inhibition at 40 µM in data set [1] of 71.1%. Besides, in data set [2], the viability at 40 µM was 86.6%.
Take `C[C@@]1(O)CC[C@]23O[C@@]2(C)CC[C@@H]2[C@H](OC(=O)[C@H]2C[S+]([O-])c2ccc(Cl)cc2Cl)[C@@H]13` (stereo in doubt; 23b): in data set [1], the “inhibition (INH)” value is listed as 52.64%. Also, in the data set with Neutrophil, the Activity is on record as 65.45%.
`C[C@@]1(O)CC[C@]23O[C@@]2(C)CC[C@@H]2[C@H](OC(=O)[C@H]2CS(=O)(=O)C2CCCCC2)[C@@H]13` had an inhibition at 40 µM in data set [1] of 65.3%. Moreover, the viability at 40 µM in data set [2] worked out at 76.2%.
The molecule `CC1=C2CC[C@@](C)(O)[C@@H]2[C@H]2OC(=O)[C@@H](CSc3ccc(F)cc3)[C@@H]2CC1` came in with an inhibition at 40 µM in data set [1] of 45.6%. Besides, in data set [2], the viability at 40 µM turned out to be 74.6%.
The like results for `C[C@@]1(O)CC[C@]23O[C@@]2(C)CC[C@@H]2[C@H](OC(=O)[C@H]2CS(=O)(=O)c2ncccn2)[C@@H]13` were, in that order, 85% and 55.5%.
In data set [1], `Cc1ccc(S(=O)(=O)C[C@@H]2C(=O)O[C@H]3[C@H]2CC[C@]2(C)O[C@@]24CC[C@@](C)(O)[C@H]34)cc1` displayed an inhibition at 40 µM of 82%. Besides, the viability at 40 µM in data set [2] worked out at 71.5%. The result in the data set with Candida albicans [6] and in the data set with Candida albicans [7] was Active.
On to `CC1=C2CC[C@@](C)(O)[C@@H]2[C@H]2OC(=O)[C@@H](C[S+]([O-])c3ccc(Cl)cc3Cl)[C@@H]2CC1` (stereo in doubt; 22a), for which the inhibition at 40 µM in data set [1] stood at 64.8%. Further, the Activity in the data set with Neutrophil is 74.28%.
As to `CC1=C2CC[C@@](C)(O)[C@@H]2[C@H]2OC(=O)[C@@H](CSc3ncccn3)[C@@H]2CC1`, in data set [1], the inhibition at 40 µM came out at 49.9%. Moreover, in data set [2], the viability at 40 µM is 60.2%.
As to `CC1=C2CC[C@@](C)(O)[C@@H]2[C@H]2OC(=O)[C@@H](CSC3CCCCC3)[C@@H]2CC1`, at 40 µM the inhibition in data set [1] was 15.8%. Besides, the viability at 40 µM in data set [2] came to 101%.
As for `COc1ccc(S(=O)(=O)C[C@@H]2C(=O)O[C@H]3[C@H]2CC[C@]2(C)O[C@@]24CC[C@@](C)(O)[C@H]34)cc1`, the inhibition at 40 µM in data set [1] came out at 77.4%. The viability at 40 µM in data set [2] amounted to 54.8%.
Regarding `CC1=C2CC[C@@](C)(O)[C@@H]2[C@H]2OC(=O)[C@@H](CSc3ccc(C)cc3)[C@@H]2CC1`, in data set [1], 40 µM produced 34.8% inhibition. For the same molecule, the viability at 40 µM in data set [2] was 70.6%.
In data set [1], `CC1=C2CC[C@@](C)(O)[C@@H]2[C@H]2OC(=O)[C@@H](CSc3ccc(Cl)cc3Cl)[C@@H]2CC1` returned an inhibition at 40 µM of 52.6%. Moreover, in data set [2], the viability at 40 µM amounted to 20.8%.
In data set [1], `CC1=C2CC[C@@](C)(O)[C@@H]2[C@H]2OC(=O)[C@@H](CSCCC(C)C)[C@@H]2CC1` showed an inhibition at 40 µM of 25.2%. The viability at 40 µM in data set [2] is 101%.
In the same order, the values of `CC1=C2CC[C@@](C)(O)[C@@H]2[C@H]2OC(=O)[C@@H](C)[C@@H]2CC1` are 17.3% and 98.6%.

Values taken from ChEMBL document CHEMBL5543121, “Drug Repurposing of ACT001 to Discover Novel Promising Sulfide Prodrugs with Improved Safety and Potent Activity for Neutrophil-Mediated Antifungal Immunotherapy” (J Med Chem, 2024).
